Measurements: article PMC12613848, “First in human phase 1 study of DT2216, a selective BCL-xL degrader, in patients with relapsed/refractory solid malignancies” (Journal of Hematology & Oncology, 2025)
“And” between values parts separate entries of the source, which are not always exact repeats. Equal entries are not always repeated. “Also recorded” adds a separate entry of the source.

Test: Safety and tolerability in patients (adverse events CTCAE v5.0, DLT, platelet count, RP2D)
Assay type: in vivo, human
Method: Dose escalation consisted of the administration of DT2216 intravenously twice weekly at several different doses outlined in protocol attached. The starting dose was 0.04 mg/kg, established based on pre-clinical toxicity studies. Safety was evaluated using CTCAE version 5.0. The initial three dose levels enrolled one patient, following which for dose level 4 and 5, a 3 + 3 design was utilized following a 100% incremental dose increase for dose levels 2 to 5 until the first dose limiting toxicity (DLT) in cycle 1 was observed. Thereafter, a modified Fibonacci sequence was used to define dose escalation increments until the maximum tolerated dose (MTD) was reached as described in protocol. If no dose-limiting toxicity (DLT) was observed during the DLT monitoring period of first 28 days, the next patient was enrolled at the next higher dose level. Dose-limiting toxicities (DLTs) during the first treatment cycle were defined as any Grade 5 toxicity; Grade 4 neutropenia lasting > 7 days; febrile neutropenia; Grade 4 thrombocytopenia or Grade 3 thrombocytopenia with clinically significant hemorrhage or lasting ≥ 7 days; and Grade ≥ 3 non-hematologic toxicities, excluding nausea, vomiting, or diarrhea lasting ≤ 3 days or transient laboratory abnormalities resolving within 72 h. Hepatotoxicity meeting Hy’s law criteria was also considered a DLT. Transient Grade 3–4 electrolyte abnormalities resolving to ≤ Grade 2 within 72 h were not considered DLTs.
Patients were allowed a maximum of two intra-patient dose escalations. Patients received DT2216 by intravenous infusion on days 1 and 4 weekly for at least 4 weeks, with each cycle consisting of a 28-day cycle for a maximum duration of 1 year until disease progression, unacceptable toxicity, or other withdrawal criteria, as listed in the protocol. The extent of disease was evaluated using imaging studies and disease-appropriate tumor markers every 8 weeks from day 1 of the first cycle. RP2D was established based on MTD as well as other relevant data, including clinical signals of activity, PK, and PD data.
Premedication prior to each infusion was at the discretion of the investigator or according to institutional guidelines. Patient assessment and follow-up procedures can be found in the schedule of assessments in this study. The clinical response was evaluated using RECIST v1.1 per protocol. Blood samples were collected for PK analysis before and after post-infusion at defined intervals, along with platelet counts. Exploratory biomarkers include (but are not limited to) the assessment of BCL-XL and VHL levels in peripheral white blood cells (WBC).

[1] = number of subjects, 20 patients, all dose cohorts
[2] = related TEAE, 20 patients, all dose cohorts

Q: With `Cc1ncsc1-c1ccc([C@H](C)NC(=O)[C@@H]2C[C@@H](O)CN2C(=O)[C@@H](NC(=O)CCCCCC(=O)N2CCN(CC[C@H](CSc3ccccc3)Nc3ccc(S(=O)(=O)NC(=O)c4ccc(N5CCN(CC6=C(c7ccc(Cl)cc7)CCC(C)(C)C6)CC5)cc4)cc3S(=O)(=O)C(F)(F)F)CC2)C(C)(C)C)cc1` [DT2216] as the molecule, how does the “fatigue, related TEAE” value (2 patients of 20) read?
A: 10%

Q: What about the “infusion-related reaction, related TEAE” value (2 patients of 20) of the same molecule?
A: 10%

Q: What about the “thrombocytopenia, related TEAE” value (9 patients of 20) of the same molecule?
A: 45%

Q: What about the “bleeding events and treatment related deaths” value (20 patients) of the same molecule?
A: no episodes of bleeding or treatment emergent adverse events leading to death; also recorded: no major bleeding events or treatment related deaths

Q: And the “Treatment discontinuation: Adverse event (subjects)” value (“Treatment discontinuation” below) (Cohort 1 (0.04 mg/kg), 1 treated)?
A: 0

Q: What about the “Treatment discontinuation” value (Cohort 2 (0.08 mg/kg), 1 treated) of the same molecule?
A: 0

Q: And the “Treatment discontinuation” value (Cohort 3 (0.12 mg/kg), 1 treated)?
A: 0

Q: And the “Treatment discontinuation” value (Cohort 4 (0.24 mg/kg), 7 treated)?
A: 0

Q: And the “Treatment discontinuation” value (Cohort 5 (0.32 mg/kg), 6 treated)?
A: 0

Q: And the “Treatment discontinuation” value (Cohort 6 (0.40 mg/kg), 4 treated)?
A: 0

Q: And the “patients with at least one related treatment-emergent adverse event (TEAE)” value (Sixteen of 20 patients)?
A: 80%

Q: What about the “Treatment discontinuation” value (Total, 20 treated) of the same molecule?
A: 0

Q: And the “time to platelet count recovery to > 50,000” value (all cases)?
A: ≤ 4 days

Q: And the “time to platelet count recovery to > 75,000” value (all cases)?
A: ≤ 1 week

Q: And the “number of dose-limiting toxicities (grade 4 thrombocytopenia)” value (dose escalation 0.04 to 0.4 mg/kg IV BIW, DLT at 0.32 mg/kg)?
A: one

Q: What about the “lowest platelet count observed during the study” value (human, in vivo) of the same molecule?
A: 24,000 /µL

Q: What about the “median duration of dose interruption due to thrombocytopenia” value (human, in vivo) of the same molecule?
A: 5 days

Q: What about the “time to resolution of the grade 4 thrombocytopenia DLT” value (human, in vivo) of the same molecule?
A: ≤ 48 h

Q: And the “Alanine aminotransferase increased, Grade > 3” value [1]?
A: 0

Q: What about the “Blood bilirubin increased, Grade > 3” value [1] of the same molecule?
A: 0

Q: And the “Contusion, Grade > 3” value [1]?
A: 0

Q: What about the “Decreased appetite, Grade > 3” value [1] of the same molecule?
A: 0

Q: What about the “Fatigue, Grade > 3” value [1] of the same molecule?
A: 0

Q: What about the “Hematuria, Grade > 3” value [1] of the same molecule?
A: 0

Q: What about the “Infusion related reaction, Grade > 3” value [1] of the same molecule?
A: 0

Q: And the “Lipase increased, Grade > 3” value [1]?
A: 0

Q: And the “Temperature intolerance, Grade > 3” value [1]?
A: 0

Q: What about the “Thrombocytopenia, Grade > 3” value [1] of the same molecule?
A: 1

Q: What about the “patients with dose interruption due to thrombocytopenia” value (of 20 patients) of the same molecule?
A: 8 patients

Q: What about the “patients with dose reduction due to thrombocytopenia” value (of 20 patients) of the same molecule?
A: 2 patients and 1 patients

Q: What about the “need for platelet transfusions” value (patients with thrombocytopenia) of the same molecule?
A: none of the patients required platelet transfusions

Q: And the “Alanine aminotransferase increased, Number of subjects (%)” value [2]?
A: 1 (5) subjects (%)

Q: What about the “Blood bilirubin increased, Number of subjects (%)” value [2] of the same molecule?
A: 1 (5) subjects (%)

Q: And the “Contusion, Number of subjects (%)” value [2]?
A: 1 (5) subjects (%)

Q: What about the “Decreased appetite, Number of subjects (%)” value [2] of the same molecule?
A: 1 (5) subjects (%)

Q: What about the “Fatigue, Number of subjects (%)” value [2] of the same molecule?
A: 2 (10) subjects (%)

Q: And the “Hematuria, Number of subjects (%)” value [2]?
A: 1 (5) subjects (%)

Q: What about the “Infusion related reaction, Number of subjects (%)” value [2] of the same molecule?
A: 2 (10) subjects (%)

Q: What about the “Lipase increased, Number of subjects (%)” value [2] of the same molecule?
A: 1 (5) subjects (%)

Q: And the “Temperature intolerance, Number of subjects (%)” value [2]?
A: 1 (5) subjects (%)

Q: And the “Thrombocytopenia, Number of subjects (%)” value [2]?
A: 9 (45) subjects (%)
